In patent publication US12329158B2, “Large-scale methods of uniformly coating packaging surfaces with a volatile antimicrobial to preserve food freshness” (AGROFRESH INC., priority 2013, dated 2025):

Legend:
Experiment in all cases: In vitro volatile assay (Example 26)
Type in all cases: cell-based
Epidermophyton floccus = details: Epidermophyton, 120 h, 5 days at 28 C, 100% control, read-out: MIC (mg/L) Epidermophyton floccus
Description: (§1) Volatile assay: 6-well (16.5 mL volume per well) microtiter plates are used in an in vitro inhibition assay for Compounds A and 31, and compared to other registered fungicides (5-fluorocytosine, Amphotericin B, aspofungin diacetate, Fluconazole and Itraconazole). A 7.5-mL volume of half strength PDA is added to each well. After drying, a mycelial plug (5 mm diameter) is aseptically obtained from actively growing cultures of Epidermophyton floccus, Trichophyton rubrum, or Trichophyton mentagrophytes and placed at the center of the plate with the mycelial side in contact with the agar. A Whatman #1 filter disk (Cat. No. 1001-325) is placed, in duplicate, on the underside of a polyethylene PCR plate sealing film. […] The headspace around the inoculum is then sealed inside the well by the film with the adhering disk containing the fungicide and incubated inverted for 5 days at 28° C.

[1] = system: Trichophyton mentagrophytes; details: Trichophyton mentagrophytes, 120 h, 5 days at 28 C, 100% control, read-out: MIC (mg/L) Trichophyton mentagrophytes
Description: as §1

Trichophyton rubrum = details: Trichophyton rubrum, 120 h, 5 days at 28 C, 100% control, read-out: MIC (mg/L) Trichophyton rubrum
Description: as §1

Measured: MIC

OB1OCc2cc(F)ccc21 [Compound A, 5-fluoro-1,3-dihydro-1-hydroxy-2,1-benzoxaborole]
2 mg/L: all assays above
